In patent US10214492B2, “Heterocyclic inhibitors of MCT4” (Vettore, LLC, priority 2016, dated 2019):

Assays:
[1] = Metabolic stability in human liver microsomes (in vitro t1/2); format: in vitro ADME; settings: for half-life at 2 µM: human liver microsomes 0.5 mg/mL, 2 μM compound, read-out: Human microsome t1/2, min; for Human microsome % 60 min: human liver microsomes
Outline: (§1)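 Liver microsomes (0.5 mg/mL final) incubated with test compound at 2 μM final plus NADPH; samples taken at 0, 15, 30, 45 and 60 min. Parent remaining quantified by LC-MS/MS; k from ln(% remaining) vs time regression, in vitro t1/2 = −0.693/k.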

[2] = Adjuvant-induced arthritis model in rat: Difference of Weight Bearing test (DWB); format: in vivo; settings: SD rat, CFA-induced arthritis; PO 3 days post CFA; compared to Dexamethasone
[3] = Adjuvant-induced arthritis model in rat: Mechanical Allodynia test (MA, Von Frey); format: in vivo; settings: SD rat, CFA-induced arthritis; PO 3 days post CFA; compared to Dexamethasone
[4] = Pharmacokinetic assay in rat (IV 3 mg/kg, PO 10 mg/kg); format: in vivo; settings: Male Sprague-Dawley rat; for Rat F: oral bioavailability; for Rat F / half-life: PO 10 mg/kg; for half-life / Vd: plasma; for half-life: read-out: Rat t1/2 (converted); for Vd: volume of distribution, read-out: Rat Vss
From the text: (§2) The following are assays that may be used to evaluate the pharmacokinetic properties of Formula (I) in mouse or rat. The assays follow a common procedure recited below.
(§3) 1. […] For PO (oral gavage), DMSO/PEG400 (10:90). Formulations freshly prepared on the day of dosing or prior to dosing. Storage at room temperature.
(§4) 2. Test Species: For Mouse: Male CD1 strain, approximately 6-8 weeks in age, approximately 20-30 g. For Rat: Male Sprague-Dawley strain, approximately 6-8 weeks in age, approximately 200-300 g.
(§5) 3. Dose Level: For IV, 3 mg/kg. For PO, 10 mg/kg.
(§6) 4. Number of animals: 3 per assay.
(§7) 5. PK time points: For IV (plasma): 5 min, 15 min, 1, 2, 4, 6, 8, 24 h post dose. For PO (plasma): 15 min, 30 min, 1, 2, 4, 6, 8, 24 h post dose.
(§8) 6. Blood Sample Collection and Processing. Blood was collected (˜0.2 mL per time point) from jugular vein. Blood of each sample was transferred into plastic micro centrifuge tubes containing anticoagulant of EDTA-K2. Blood samples were centrifuged at 2,000 g for 5 minutes at 4° C. to obtain plasma.
(§9) 7. Samples Analysis: Plasma samples were analyzed using LC/MS/MS method, and pharmacokinetic parameters (half-life: t1/2; oral bioavailability: F; volume of distribution: Vss).

[5] = Metabolic stability in mouse liver microsomes (in vitro t1/2); format: in vitro ADME; settings: for half-life at 2 µM / Mouse microsome t1/2, min: mouse liver microsomes 0.5 mg/mL, 2 μM compound; for half-life at 2 µM: read-out: Mouse microsome t1/2, min; for Mouse microsome % 60 min: mouse liver microsomes
Outline: as §1

[6] = Pharmacokinetic assay in mouse (IV 3 mg/kg, PO 10 mg/kg); format: in vivo; settings: Male CD1 mouse; for Mouse F: oral bioavailability; for Mouse F / half-life: PO 10 mg/kg; for half-life / Vd: plasma; for half-life: read-out: Mouse t1/2 (converted); for Vd: volume of distribution, read-out: Mouse Vss
From the text: as §2, §3, §4, §5, §6, §7, §8, §9

MCT4 = MCT4 (Homo sapiens (Human), UniProt O15427); test: Assay 3: MCT4-mediated lactate transport in MDA-MB-231 breast cancer cells; format: cell-based; settings: MDA-MB-231 cells; lactate transport
Outline: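 MDA-MB-231 cells loaded with BCECF-AM, 5 min at 37° C, washed and resuspended in Tyrode's Solution, pH 7.4. MCT4 lactate/proton symport followed as the intracellular pH change reported by BCECF fluorescence.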

MCT1 = MCT1 (Homo sapiens (Human), UniProt P53985); test: Assay 4: MCT1-mediated lactate transport in BT20 breast cancer cells; format: cell-based; settings: Table 27
Outline: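 BT20 cells loaded with BCECF-AM (30 mM DMSO stock) for 5 min at 37° C, washed and resuspended in Tyrode's Solution pH 7.4. Lactate uptake tracked via BCECF intracellular pH signal after adding 10 mM L-lactate.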

[7] = Metabolic stability in rat liver microsomes (in vitro t1/2); format: in vitro ADME; settings: for half-life at 2 µM: rat liver microsomes 0.5 mg/mL, 2 μM compound, read-out: Rat microsome t1/2, min; for Rat microsome % 60 min: rat liver microsomes
Outline: as §1

Chain of MCT1 (P53985 whole entry): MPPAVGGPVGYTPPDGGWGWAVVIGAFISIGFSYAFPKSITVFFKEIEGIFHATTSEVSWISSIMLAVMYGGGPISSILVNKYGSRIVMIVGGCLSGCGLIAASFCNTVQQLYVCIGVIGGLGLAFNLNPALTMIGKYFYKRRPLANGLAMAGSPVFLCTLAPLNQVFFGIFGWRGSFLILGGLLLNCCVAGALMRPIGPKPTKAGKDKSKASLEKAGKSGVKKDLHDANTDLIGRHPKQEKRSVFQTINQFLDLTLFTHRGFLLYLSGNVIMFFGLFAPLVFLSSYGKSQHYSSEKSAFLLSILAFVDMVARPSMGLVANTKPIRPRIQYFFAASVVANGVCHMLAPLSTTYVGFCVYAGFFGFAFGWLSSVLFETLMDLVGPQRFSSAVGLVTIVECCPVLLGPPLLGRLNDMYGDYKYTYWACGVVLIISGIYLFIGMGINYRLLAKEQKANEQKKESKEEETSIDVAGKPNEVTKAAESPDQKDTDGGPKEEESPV
Chain of MCT1 (P35613 140-385 partner): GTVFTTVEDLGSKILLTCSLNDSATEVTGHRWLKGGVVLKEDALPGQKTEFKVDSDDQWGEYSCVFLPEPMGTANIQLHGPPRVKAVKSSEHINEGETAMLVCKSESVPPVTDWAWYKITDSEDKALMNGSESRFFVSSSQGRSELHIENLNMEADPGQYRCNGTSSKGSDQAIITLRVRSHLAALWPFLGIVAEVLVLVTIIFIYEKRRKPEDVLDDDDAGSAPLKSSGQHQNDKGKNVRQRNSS
Chain of MCT4 (O15427 whole entry, looked up): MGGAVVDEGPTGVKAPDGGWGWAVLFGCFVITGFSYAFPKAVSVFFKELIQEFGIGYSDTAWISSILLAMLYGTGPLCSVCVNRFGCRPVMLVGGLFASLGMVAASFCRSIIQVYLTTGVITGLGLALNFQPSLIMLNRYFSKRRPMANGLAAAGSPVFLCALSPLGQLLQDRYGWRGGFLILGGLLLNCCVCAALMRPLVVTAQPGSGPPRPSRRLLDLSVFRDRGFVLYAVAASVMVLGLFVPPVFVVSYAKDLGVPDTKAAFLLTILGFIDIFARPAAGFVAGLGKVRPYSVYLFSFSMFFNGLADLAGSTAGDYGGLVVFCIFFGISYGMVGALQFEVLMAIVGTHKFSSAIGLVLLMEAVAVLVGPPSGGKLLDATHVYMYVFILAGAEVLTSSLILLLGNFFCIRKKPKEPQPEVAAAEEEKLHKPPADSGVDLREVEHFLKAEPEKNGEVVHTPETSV
Chain of MCT4 (P35613 whole entry partner, looked up): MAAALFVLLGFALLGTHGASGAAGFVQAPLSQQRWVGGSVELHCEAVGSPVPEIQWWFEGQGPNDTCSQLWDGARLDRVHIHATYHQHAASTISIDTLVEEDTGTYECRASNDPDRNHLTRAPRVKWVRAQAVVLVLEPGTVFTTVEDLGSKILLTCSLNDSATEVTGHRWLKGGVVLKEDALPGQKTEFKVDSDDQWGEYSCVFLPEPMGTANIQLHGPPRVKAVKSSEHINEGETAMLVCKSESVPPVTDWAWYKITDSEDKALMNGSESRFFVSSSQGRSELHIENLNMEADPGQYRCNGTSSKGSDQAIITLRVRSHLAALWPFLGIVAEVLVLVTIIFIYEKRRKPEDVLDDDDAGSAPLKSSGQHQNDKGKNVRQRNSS

Structure (SMILES)	half-life at 2 µM [1] [h]	Human microsome % 60 min [1] [%]	Difference in Weight Bearing, Minimal Efficacious Dose [2] [mg/kg]	Mechanical Allodynia (Von Frey), Minimal Efficacious Dose [3] [mg/kg]	Rat F [4] [%]	half-life [4] [h]	Vd [4] [L/kg]	half-life at 2 µM [5] [h]	Mouse microsome % 60 min [5] [%]	Mouse F [6] [%]	half-life [6] [h]	Vd [6] [L/kg]	IC50 (MCT4) [nM]	IC50 (MCT1) [nM]	half-life at 2 µM [7] [h]	Rat microsome % 60 min [7] [%]	Mouse microsome t1/2, min [5]
COc1cccc(-c2cc(COC(C)(C)C(=O)O)nn2Cc2ccccc2Cl)c1 [Example 14, 2-([1-[(2-Chlorophenyl)methyl]-5-(3-methoxyphenyl)1H-pyrazol-3-yl]methoxy)-2-methylpropanoic acid]	4.08	82	30	30	64	3.8	1.3	21.7	95	100	5.4	0.79	–	–	–	–	–
CC(C)(OCc1cc(-c2cccc(OC3CC3)c2)n(-c2ccccc2Cl)n1)C(=O)O [Example 110, 2-([1-(2-Chlorophenyl)-5-(3-cyclo-propoxyphenyl)-1H-pyrazol-3-yl)methoxy)-2-methylpropanoic acid]	39.6	99	10	10	84	4.7	0.34	3.72	86	100	26.7	0.81	20	30000	9.15	94	–
CCn1ncc2ccc(-c3cc(COC(C)(C)C(=O)O)nn3Cc3ccccc3Cl)cc21 [Example 150, 2-([1-[(2-Chlorophenyl)methyl]-5-(1-ethyl-1H-indazol-6-yl)-1H-pyrazol-3-yl]-methoxy)-2-methylpropanoic Acid]	5.68	90	10	10	43	3.6	1.2	–	103	89	4.9	9.9	2.8	25000	28.6	98	∞
CCOc1cc(OCC)cc(-c2cc(COC(C)(C)C(=O)O)nn2-c2ccccc2Cl)c1 [Example 180, 2-([1-(2-Chlorophenyl)-5-(3,5-diethoxy-phenyl)-1H-pyrazol-3-yl]methoxy)-2-methylpropanoic acid]	4.6	88	>10	>10	49	4.4	0.39	–	103	–	–	–	2.9	28000	38.2	98	∞
Cn1ncc2cccc(-n3nc(COC(C)(C)C(=O)O)cc3-c3cccc(OC4CC4)c3)c21 [Example 191, 2-([5-(3-Cyclopropoxyphenyl)-1-(1-methyl-1H-indazol-7-yl)-1H-pyrazol-3-yl]-methoxy)-2-methylpropanoic acid]	23.4	98	>10	>10	97	6.3	1	16.8	97	–	–	–	17	16000	9.27	94	–
COc1cc(OC)cc(-c2cc(COC(C)(C)C(=O)O)nn2Cc2ccccc2Cl)c1 [Example 224, 2-([1-[(2-Chlorophenyl)methyl]-5-(3,5-di-methoxyphenyl)-1H-pyrazol-3-yl]methoxy)-2-methylpropanoic acid]	12.3	91	≤10	≤10	53	2.6	1.3	13.8	98	–	–	–	4.1	30000	2.2	73	–
CC(C)(OCc1cc(-c2cccc(OC3CCC3)c2)n(-c2ccccc2N2CCC2)n1)C(=O)O [Example 260, 2-([1-[2-(Azetidin-1-yl)phenyl]-5-(3-cyclobutoxyphenyl)-1H-pyrazol-3-yl]methoxy)-2-methylpropanoic acid]	–	–	1	1	85	3.7	0.2	–	–	86	5.2	0.22	0.83	26000	–	–	–
CCOc1ccccc1Cn1nc(CO[C@](C)(CC)C(=O)O)cc1-c1cc(OC)cc(OC)c1 [Example 264, (2R)-2-([5-(3,5-Dimethoxyphenyl)-1-[(2-ethoxyphenyl)methyl]-1H-pyrazol-3-yl]methoxy)-2-methylbutanoic acid]	–	–	1	1	100	4.6	2.5	–	–	94	2.7	1.1	0.35	10000	–	–	–
CC[C@@](C)(OCc1cc(-c2cccc(OC3CC3)c2)n(-c2ccccc2N2CCC2)n1)C(=O)O [Example 266]	–	–	3	3	100	2.7	0.23	–	–	100	3.8	0.36	0.36	64000	–	–	–
CCCn1ncc2ccc(-c3cc(CO[C@](C)(CC)C(=O)O)nn3-c3ccccc3N3CCC3)cc21 [Example 267, (2R)-2-([1-(2-(azetidin-1-yl)phenyl]-5-(1-propyl-1H-indazol-6-yl)-1H-pyrazol-3-yl]methoxy)-2-methylbutanoic acid]	–	–	3	3	54	2.6	7.7	–	–	64	3.3	3.9	0.57	11000	–	–	–
CCn1ncc2ccc(-c3cc(CO[C@](C)(CC)C(=O)O)nn3-c3ccccc3N3CCCC3)cc21 [Example 268, (2R)-2-([5-(1-ethyl-1H-indazol-6-yl)-1-[2-(pyrrolidin-1-yl)phenyl)-1H-pyrazol-3-yl]methoxy)-2-methylbutanoic acid]	–	–	1	1	57	2.2	0.76	–	–	77	2.7	0.77	0.3	36000	–	–	–
